Data on one compound can be found in patent publication US20080115236A1, “CBG gene as a genetic marker of hypercortisolism and associated pathologies” (Institut National de la Recherche Agronomique (INRA), a …, priority 2001, published 2008).

Molecules are shown by their SMILES. Read-outs that look alike come from different tables or passages of the source.

The target of the assay is T1, CBG (corticosteroid-binding globulin, transcortin) (Sus scrofa, UniProt Q9GK37).
T1 construct: quantity of cortisol specifically fixed to the glycoproteins adsorbed on the gel; from tissue; host or cells: pig blood plasma (Large White and Meishan, n = 12 each)
T1 sequence (Q9GK37 23-406): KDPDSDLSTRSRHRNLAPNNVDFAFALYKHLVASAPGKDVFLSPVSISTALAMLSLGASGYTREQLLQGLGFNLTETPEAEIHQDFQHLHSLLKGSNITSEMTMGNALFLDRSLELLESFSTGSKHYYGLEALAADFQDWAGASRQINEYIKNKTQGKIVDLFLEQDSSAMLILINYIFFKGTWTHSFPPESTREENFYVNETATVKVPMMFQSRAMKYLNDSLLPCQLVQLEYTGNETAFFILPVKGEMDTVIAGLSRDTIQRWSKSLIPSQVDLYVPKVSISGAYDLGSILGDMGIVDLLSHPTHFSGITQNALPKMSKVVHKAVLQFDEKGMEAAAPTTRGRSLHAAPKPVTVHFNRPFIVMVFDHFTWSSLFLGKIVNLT
As to the kind of experiment: solid phase fixation (radiobinding) test of cortisol binding to plasma CBG, Concavalin A-Sepharose, Scatchard analysis. The arrangement: species or system pig. The settings on record: n = 12, plasma CBG, 4° C., read-out: Kd (affinity of CBG for cortisol). As for the experimental part:
The binding capacity of CBG and its affinity for cortisol were measured at 4° C. by a solid phase fixation test using a Concavalin A-Sepharose column (Pugeat et al., 1984). The association equilibrium constant (Ka) and the capacity of CBG for cortisol were calculated by a Scatchard analysis using “bound” as the quantity of cortisol specifically fixed to the glycoproteins adsorbed on the gel and “free” as the concentration of cortisol in the aqueous phase.
At the protein level, the capacity of binding to cortisol and the affinity constant of CBG were compared between the LW and Meishan pigs by radiobinding studies. No difference in affinity was found between the two breeds of pigs.

Turning to `C[C@]12CCC(=O)C=C1CC[C@@H]1[C@@H]2[C@@H](O)C[C@@]2(C)[C@H]1CC[C@]2(O)C(=O)CO` [cortisol], the Kd by setting is: (Large White pigs) 0.38 ± 0.05 nM; (Meishan pigs) 0.46 ± 0.05 nM.

One may read the Kd as the equilibrium constant for the complex coming apart.
